Experimental data taken from patent US9456589B2, “Elasmobranch-repelling compounds and methods of use” (priority 2005, dated 2016).
Several values for one entry are separate records, joined by “and”; a condition that tells them apart may be missing. Equal values may be shown once.

How the values were obtained:
Assay type in all cases: in vivo
[1] = system: juvenile lemon and nurse sharks; assay: Tonic immobility, Micropipette Assay, summary over species; details: juvenile lemon and nurse sharks
Description: One bioassay used to observe and measure flight response is the tonic immobility test. Tonic immobility is a state of paralysis that typically occurs when a shark is subject to inversion of its body along the longitudinal axis. This state is called “tonic,” and the shark can remain in this state for up to 15 minutes thereby allowing researchers to observe effects of chemical repellents. The “tonic” state of the shark is first established by releasing seawater in proximity to the “tonic” shark with the same delivery instrument and at the same distance as a “test” repellent compound will be released. Some controls are released with a high flow rate (30 mL/sec) in order to establish that sharks are not awakened by a jet of fluid over their noses. Once behavioral controls are established, a compound or composition that may have a repelling effect is delivered to the shark. If the compound or composition engenders a flight response, the shark will awaken from the tonic state and rapidly attempt to flee the delivered repellent. Using this tonic immobility bioassay researches can quantify the strength of a repellent effect.
A fourth method of delivery was called the “Micropipette Assay” method of delivery. In this method, a very small dose (fraction of a mL) of a test substance was delivered directly into a shark's mouth. […] A response, such as a cough or other notable action of the shark, was usually noted when effective gustatory repellents were delivered directly into a shark's mouth while in tonic immobility.
The Micropipette Assay method has not proven to be a particularly effective method of assaying for a flight response in elasmobranchs. The Micropipette Assay method is, nevertheless, an excellent method for specifying that a gustatory response has occurred. It is effective for specifying a gustatory response because the micropipette delivery method allows direct delivery of an entire bolus of test substance into the mouth of the shark being tested.
An oral dose of no more than 400 microliters was then delivered by micropipette into the mouth of a juvenile nurse shark. Tonic immobility was terminated. For each derivative of butyric acid and each naturally occurring acid listed in Table 9, a first micropipette assay was performed on a juvenile lemon shark with no more than 100 microliters of test acid in an oral dose. A second micropipette assay was then performed on a juvenile nurse shark with no more than 400 microliters of test acid in an oral dose. In each test, tonic immobility was terminated.
In a first set of studies on the effectiveness of carboxylic acids as elasmobranch repellents, each tested substance was subjected to the following protocol. […] An oral dose of no more than 400 microliters was then delivered by micropipette into the mouth of a juvenile nurse shark. Tonic immobility was terminated. […] The data evidences the gustatory repelling activity of carboxylic acids.

[2] = system: sharks (lemon, nurse, tiger pooled); assay: Tonic immobility, Hd Syringe Assay, summary over species; details: species pooled
How it was run: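 Sharks held in tonic immobility by inversion, with seawater sham releases (some at 30 mL/sec) as controls. 3-methylbutanal released slowly by 3 mL syringe (22 gauge) within 3 inches of mouth and nares. Waking/flight response recorded, with time to response where measurable.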

[3] = system: captive Cobia and Yellowfin Tuna; assay: Feeding behavior of captive fish in the presence of aldehydes
Source text: Similarly, teleost reef fish, such as Triggerfish and Snappers, have been observed feeding and swimming in a cloud of shark-repelling aldehydes. This behavior is presumed to result from the lack of aldehyde-receptors in the fishes' gustatory system.

CC(C)CC=O [3-methylbutanal]
Micropipette assays with a behavioral response within tonic immobility [1]: ten
Micropipette assays with a gustatory response (termination or behavior change) [1]: 16 of 20 and fifteen
Micropipette assays with no response [1]: five
Micropipette Y (termination of tonic immobility), trials of trials ([1]; oral dose): five
Hd-Syringe N (no response), trials of trials [2]: one and 1/27
Hd-Syringe R (behavior response within tonic immobility), trials of trials [2]: 6/27
Hd-Syringe R, percent of trials [2]: 22%
Hd-Syringe Y (termination of tonic immobility), trials of trials [2]: 20/27
Hd-Syringe Y, percent of trials [2]: 74%
feeding behavior of fish in the presence of the aldehyde [3]: slightly increased
